Molecules are shown by their SMILES.

The record followed here is US12692269B2, “Therapeutic compounds” (Genentech, Inc., priority 2019, dated 2026).

Holding throughout (format): binding
Assay [1] addresses TEAD1 YAP50-100 (Homo sapiens, UniProt P28347). Briefly: TEAD1-YAP HTRF (TR-FRET) protein-protein interaction assay. To be noted: TEAD1, YAP peptide 50-100, HTRF; for EC50: read-out: TEAD1 YAP50-100 HTRF combined: EC50. The method, then:
(§1) Purified His-tagged TEAD protein (YAP Binding Domain, amino acids 217-447) is pre-incubated with Europium labelled anti-His antibody tracer (Perkin Elmer Cat #AD0110). Small molecule Inhibitors are then incubated with the TEAD-Eu protein complex for 30 minutes to allow for binding to TEAD protein. Biotinylated YAP peptide for TEAD-YAP assays (AA's 50-100) or biotinylated TAZ peptide for TEAD-TAZ assays (AA's 13-57) that has been pre-incubated with streptavidin-xl665 acceptor (CIS-Bio Cat #610SAXAC) or is added to the compound-TEAD mix. The TEAD-YAP-inhibitor mixture is then incubated for 60 minutes at room temperature. All reactions are carried out in a polystyrene plate. After 60 minutes, the plate is read on a plate reader using TR-FRET mode with wavelengths of 665 nm/615 nm. If YAP or TAZ binds to TEAD as expected, a TR-FRET signal results from the proximity of YAP or TAZ and TEAD after binding. If an inhibitor such as peptide 17 (Selleckchem Cat #58164) interferes with YAP-TEAD or TAZ-TEAD binding, the disruption of the YAP or TAZ:TEAD interaction results in a decrease in TR-FRET signal. The potency of compounds as YAP:TEAD or TAZ:TEAD protein-protein interaction (PPi) inhibitors is determined by an IC50 or EC50 value generated using a non-linear four parameter curve fit.

For assay [2], the target named is TEAD2 TAZ (amino acids 13-57) (Homo sapiens, UniProt Q15562). Briefly: TEAD2-TAZ HTRF (TR-FRET) protein-protein interaction assay. The note with it: for TEAD2 TAZ HTRF combined: Max % Inhibition: TEAD2, TAZ peptide; for EC50: TEAD2-TAZ HTRF, TR-FRET 665 nm/615 nm, read-out: TEAD2 TAZ HTRF combined: EC50. As to the method: as §1
Assay [3] has as its target TEAD3 TAZ (amino acids 13-57) (Homo sapiens, UniProt Q99594). Description: TEAD3-TAZ HTRF (TR-FRET) protein-protein interaction assay. The note with it: for TEAD3 TAZ HTRF combined: Max % Inhibition: TEAD3, TAZ peptide; for EC50: TEAD3-TAZ HTRF, TR-FRET 665 nm/615 nm, read-out: TEAD3 TAZ HTRF combined: EC50. As to the method:
as §1

For assay [4], the target named is TEAD1 TAZ (amino acids 13-57) (Homo sapiens, UniProt P28347). Briefly: TEAD1-TAZ HTRF (TR-FRET) protein-protein interaction assay. The note with it: for TEAD1 TAZ HTRF combined: Max % Inhibition: TEAD1, TAZ peptide; for EC50: TEAD1-TAZ HTRF, TR-FRET 665 nm/615 nm, read-out: TEAD1 TAZ HTRF combined: EC50. The method, then: as §1
The target in assay [5] is TEAD2 YAP50-100 (Homo sapiens, UniProt Q15562). Description: TEAD2-YAP HTRF (TR-FRET) protein-protein interaction assay. The note with it: TEAD2, YAP peptide 50-100, HTRF; for EC50: read-out: TEAD2 YAP50-100 HTRF combined: EC50. The method, then:
as §1

Assay [6] deals with TEAD4 TAZ (amino acids 13-57) (Homo sapiens, UniProt Q15561). Briefly: TEAD4-TAZ HTRF (TR-FRET) protein-protein interaction assay. The note with it: for TEAD4 TAZ HTRF combined: Max % Inhibition: TEAD4, TAZ peptide; for EC50: TEAD4-TAZ HTRF, TR-FRET 665 nm/615 nm, read-out: TEAD4 TAZ HTRF combined: EC50. As to the method: as §1
The target of assay [7] is TEAD3 YAP50-100 (Homo sapiens, UniProt Q99594). Briefly: TEAD3-YAP HTRF (TR-FRET) protein-protein interaction assay. To be noted: TEAD3, YAP peptide 50-100, HTRF; for EC50: read-out: TEAD3 YAP50-100 HTRF combined: EC50. As to the method:
as §1

Assay [8] concerns the target TEAD4 YAP50-100 (Homo sapiens, UniProt Q15561). Briefly: TEAD4-YAP HTRF (TR-FRET) protein-protein interaction assay. To be noted: TEAD4, YAP peptide 50-100, HTRF; for EC50: read-out: TEAD4 YAP50-100 HTRF combined: EC50. As to the method: as §1

TEAD4 TAZ (amino acids 13-57), sequence (Q15561 217-434 limits assumed): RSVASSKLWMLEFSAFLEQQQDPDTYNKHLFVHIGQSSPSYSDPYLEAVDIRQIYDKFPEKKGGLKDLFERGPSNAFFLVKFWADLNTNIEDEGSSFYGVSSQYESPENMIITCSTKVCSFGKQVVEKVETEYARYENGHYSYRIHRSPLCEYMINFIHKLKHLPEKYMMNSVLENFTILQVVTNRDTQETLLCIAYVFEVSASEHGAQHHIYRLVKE
TEAD4 YAP50-100, sequence (Q15561 217-434 limits assumed): as above
TEAD2 YAP50-100, sequence (Q15562 217-447): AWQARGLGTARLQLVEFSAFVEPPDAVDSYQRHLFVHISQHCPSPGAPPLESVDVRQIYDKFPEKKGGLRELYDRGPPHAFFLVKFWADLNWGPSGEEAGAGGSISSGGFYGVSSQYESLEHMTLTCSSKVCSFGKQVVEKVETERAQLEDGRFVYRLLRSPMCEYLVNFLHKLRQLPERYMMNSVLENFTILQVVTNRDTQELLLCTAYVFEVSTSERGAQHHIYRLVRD
TEAD2 TAZ (amino acids 13-57), sequence (Q15562 217-447): as above
TEAD1 TAZ (amino acids 13-57), sequence (P28347 167-426 limits assumed): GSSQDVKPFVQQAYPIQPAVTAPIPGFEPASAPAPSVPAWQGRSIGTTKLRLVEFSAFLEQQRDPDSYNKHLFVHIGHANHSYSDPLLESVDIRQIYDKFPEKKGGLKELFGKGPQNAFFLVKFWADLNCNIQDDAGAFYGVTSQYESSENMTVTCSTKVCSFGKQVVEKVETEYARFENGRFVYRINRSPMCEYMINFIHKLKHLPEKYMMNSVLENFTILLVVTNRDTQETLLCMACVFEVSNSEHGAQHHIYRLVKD
TEAD1 YAP50-100, sequence (P28347 167-426 limits assumed): as above
TEAD3 TAZ (amino acids 13-57), sequence (Q99594 173-435 limits assumed): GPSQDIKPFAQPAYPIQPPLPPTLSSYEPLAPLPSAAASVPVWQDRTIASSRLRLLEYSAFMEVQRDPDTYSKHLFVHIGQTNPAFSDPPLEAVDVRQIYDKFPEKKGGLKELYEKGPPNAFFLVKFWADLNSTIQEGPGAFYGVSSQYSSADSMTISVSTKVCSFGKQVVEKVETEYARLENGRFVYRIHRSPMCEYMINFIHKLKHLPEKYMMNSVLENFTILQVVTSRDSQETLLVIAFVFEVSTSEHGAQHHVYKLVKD
TEAD3 YAP50-100, sequence (Q99594 173-435 limits assumed): as above

With `Cc1nccnc1-c1nn2c(=O)cc(-c3ccc(CC(C)(C)C)cc3)[nH]c2c1C(=O)N1C[C@H](CF)[C@@H]1C` (racemic) [Compound 73, 5-[4-(2,2-dimethylpropyl)phenyl]-2-(3-methylpyrazin-2-yl)-3-[rac-(2S,3S)-3-(fluoromethyl)-2-methyl-azetidine-1-carbonyl]-4H-pyrazolo[1,5-a]pyrimidin-7-one], in assay [1], the “TEAD1 YAP50-100 HTRF combined: Max % Inhibition” value stood at 74.0% and the EC50 was 120 nM. Besides, in assay [2], the “TEAD2 TAZ HTRF combined: Max % Inhibition” value came to 68.5% and the EC50 worked out at 20 nM. Further, in assay [3], the “TEAD3 TAZ HTRF combined: Max % Inhibition” value was 59.5% and the half-maximal effective concentration (EC50) is 160 nM. Further, in assay [4], the “TEAD1 TAZ HTRF combined: Max % Inhibition” value is 65.5% and the EC50 worked out at 110 nM. Besides, in assay [5], the “TEAD2 YAP50-100 HTRF combined: Max % Inhibition” value turned out to be 67.0% and the EC50 stood at 20 nM. Moreover, in assay [6], the “TEAD4 TAZ HTRF combined: Max % Inhibition” value is given as 56.0% and the EC50 amounted to 80 nM. For the same molecule, in assay [7], the “TEAD3 YAP50-100 HTRF combined: Max % Inhibition” value came out at 69.5% and the EC50 turned out to be 150 nM. In addition, in assay [8], the “TEAD4 YAP50-100 HTRF combined: Max % Inhibition” value turned out to be 58.5% and the concentration giving a half-maximal response (EC50) turned out to be 100 nM.
In the case of `CC1CCN1C(=O)c1nn2c(=O)cc(-c3ccc(C4CCCCC4)cc3)[nH]c2c1C(=O)N1CC(CF)C1` (single isomer, unassigned) [Enantiomer A, Example 33, 5-(4-Cyclohexylphenyl)-3-(3-(fluoromethyl)azetidine-1-carbonyl)-2-(2-methylazetidine-1-carbonyl)pyrazolo[1,5-a]pyrimidin-7(4H)-one], in assay [1], the “TEAD1 YAP50-100 HTRF combined: Max % Inhibition” value was found to be 71.0% and the half-maximal effective concentration (EC50) is 70 nM. Besides, in assay [2], the “TEAD2 TAZ HTRF combined: Max % Inhibition” value worked out at 63.0% and the EC50 amounted to 20 nM. In addition, in assay [3], the “TEAD3 TAZ HTRF combined: Max % Inhibition” value was determined as 58.5% and the EC50 was determined as 210 nM. Also, in assay [4], the “TEAD1 TAZ HTRF combined: Max % Inhibition” value worked out at 61.5% and the 50% effective concentration (EC50) was found to be 100 nM. In assay [5], the “TEAD2 YAP50-100 HTRF combined: Max % Inhibition” value is reported as 67.5% and the concentration for a half-maximal effect (EC50) is 20 nM. In assay [6], the “TEAD4 TAZ HTRF combined: Max % Inhibition” value was determined as 41.5% and the EC50 turned out to be 410 nM. In addition, in assay [7], the “TEAD3 YAP50-100 HTRF combined: Max % Inhibition” value came out at 71.5% and the EC50 was 180 nM. In addition, in assay [8], the “TEAD4 YAP50-100 HTRF combined: Max % Inhibition” value worked out at 48.5% and the EC50 stood at 460 nM.
With `C[C@H](CO)c1nn2c(=O)cc(-c3ccc(C4CCCCC4)cc3)[nH]c2c1C(=O)N1CC(CF)C1` (single isomer, unassigned) [Enantiomer A, Example 55], in assay [1], the “TEAD1 YAP50-100 HTRF combined: Max % Inhibition” value came to 62.0% and the half-maximal effective concentration (EC50) was 80 nM. Moreover, in assay [2], the “TEAD2 TAZ HTRF combined: Max % Inhibition” value is 51.5% and the half-maximal effective concentration (EC50) is 10 nM. Besides, in assay [3], the “TEAD3 TAZ HTRF combined: Max % Inhibition” value was determined as 59.5% and the EC50 was 110 nM. In addition, in assay [4], the “TEAD1 TAZ HTRF combined: Max % Inhibition” value is given as 44.0% and the EC50 was determined as 110 nM. In assay [5], the “TEAD2 YAP50-100 HTRF combined: Max % Inhibition” value stood at 61.5% and the EC50 was determined as 10 nM. In addition, in assay [6], the “TEAD4 TAZ HTRF combined: Max % Inhibition” value worked out at 32.0% and the concentration for a half-maximal effect (EC50) turned out to be 460 nM. In addition, in assay [7], the “TEAD3 YAP50-100 HTRF combined: Max % Inhibition” value is 69.5% and the concentration for a half-maximal effect (EC50) was determined as 100 nM. Further, in assay [8], the “TEAD4 YAP50-100 HTRF combined: Max % Inhibition” value is listed as 42.0% and the EC50 was 500 nM.
Turning to `O=C(c1c(C2CNCCO2)nn2c(=O)cc(-c3ccc(C4CCCCC4)cc3)[nH]c12)N1CC(CF)C1` (single isomer, unassigned) [Enantiomer A, Example 63, 5-(4-Cyclohexylphenyl)-3-[3-(fluoromethyl)azetidine-1-carbonyl]-2-morpholin-2-yl-4H-pyrazolo[1,5-a]pyrimidin-7-one], in assay [1], the “TEAD1 YAP50-100 HTRF combined: Max % Inhibition” value is 66.0% and the concentration for a half-maximal effect (EC50) came out at 140 nM. In assay [2], the “TEAD2 TAZ HTRF combined: Max % Inhibition” value came out at 66.0% and the concentration for a half-maximal effect (EC50) was found to be 40 nM. Besides, in assay [3], the “TEAD3 TAZ HTRF combined: Max % Inhibition” value came to 55.5% and the EC50 turned out to be 200 nM. Further, in assay [4], the “TEAD1 TAZ HTRF combined: Max % Inhibition” value is 55.5% and the concentration giving a half-maximal response (EC50) worked out at 130 nM. Further, in assay [5], the “TEAD2 YAP50-100 HTRF combined: Max % Inhibition” value is 66.0% and the EC50 came out at 40 nM. Further, in assay [6], the “TEAD4 TAZ HTRF combined: Max % Inhibition” value worked out at 30.5% and the EC50 came out at 1550 nM. For the same molecule, in assay [7], the “TEAD3 YAP50-100 HTRF combined: Max % Inhibition” value is recorded as 62.0% and the half-maximal effective concentration (EC50) stood at 180 nM. In assay [8], the “TEAD4 YAP50-100 HTRF combined: Max % Inhibition” value is 40.0% and the concentration for a half-maximal effect (EC50) came out at 1600 nM.
As to `CC1CCN1C(=O)c1nn2c(=O)cc(-c3ccc(C4CCCCC4)cc3)[nH]c2c1C(=O)N1CC(CF)C1` (single isomer, unassigned) [Enantiomer B, Example 33, 5-(4-Cyclohexylphenyl)-3-(3-(fluoromethyl)azetidine-1-carbonyl)-2-(2-methylazetidine-1-carbonyl)pyrazolo[1,5-a]pyrimidin-7(4H)-one], in assay [1], the “TEAD1 YAP50-100 HTRF combined: Max % Inhibition” value was determined as 72.0% and the concentration for a half-maximal effect (EC50) was 80 nM. In addition, in assay [2], the “TEAD2 TAZ HTRF combined: Max % Inhibition” value came out at 68.0% and the half-maximal effective concentration (EC50) is 20 nM. In addition, in assay [3], the “TEAD3 TAZ HTRF combined: Max % Inhibition” value stood at 58.5% and the concentration for a half-maximal effect (EC50) turned out to be 200 nM. Moreover, in assay [4], the “TEAD1 TAZ HTRF combined: Max % Inhibition” value came to 64.0% and the concentration for a half-maximal effect (EC50) is 100 nM. Further, in assay [5], the “TEAD2 YAP50-100 HTRF combined: Max % Inhibition” value worked out at 72.0% and the concentration for a half-maximal effect (EC50) was 20 nM. In assay [6], the “TEAD4 TAZ HTRF combined: Max % Inhibition” value is 37.5% and the EC50 was determined as 570 nM. In addition, in assay [7], the “TEAD3 YAP50-100 HTRF combined: Max % Inhibition” value came to 69.0% and the EC50 came to 150 nM. In addition, in assay [8], the “TEAD4 YAP50-100 HTRF combined: Max % Inhibition” value came to 49.0% and the EC50 was 670 nM.
On to `C[C@@H](CO)c1nn2c(=O)cc(-c3ccc(C4CCCCC4)cc3)[nH]c2c1C(=O)N1CC(CF)C1` (single isomer, unassigned) [Enantiomer B, Example 55], for which, in assay [1], the “TEAD1 YAP50-100 HTRF combined: Max % Inhibition” value worked out at 71.0% and the EC50 came out at 80 nM. In assay [2], the “TEAD2 TAZ HTRF combined: Max % Inhibition” value was 57.0% and the EC50 worked out at 20 nM. Besides, in assay [3], the “TEAD3 TAZ HTRF combined: Max % Inhibition” value stood at 53.5% and the EC50 was determined as 100 nM. In assay [4], the “TEAD1 TAZ HTRF combined: Max % Inhibition” value was found to be 45.5% and the 50% effective concentration (EC50) was determined as 90 nM. Further, in assay [5], the “TEAD2 YAP50-100 HTRF combined: Max % Inhibition” value was 64.0% and the concentration for a half-maximal effect (EC50) stood at 10 nM. Besides, in assay [6], the “TEAD4 TAZ HTRF combined: Max % Inhibition” value amounted to 27.0% and the EC50 is 140 nM. Besides, in assay [7], the “TEAD3 YAP50-100 HTRF combined: Max % Inhibition” value is listed as 61.5% and the EC50 came to 80 nM. In assay [8], the “TEAD4 YAP50-100 HTRF combined: Max % Inhibition” value was determined as 36.5% and the EC50 came out at 200 nM.
